Results published in US9266904B2, “6-bridged heteroaryldihydropyrimidines for the treatment and prophylaxis of hepatitis B virus infection” (priority 2013, dated 2016).
Like-named read-outs stand apart in the source and are kept apart here.

Columns and labels:
[1] = test system: HBV replication in HepG2.2.15 cells; assay: Anti-HBV activity in vitro in HepG2.2.15 cells (extracellular HBV DNA by qPCR); format: cell-based; details: read-out: EC50
Excerpt: HepG2.2.15 and HepDE19 are stably-transfected cell lines containing the HBV genome. Both cell lines are derived from the hepatoblastoma cell line Hep G2 (American Type Culture Collection, ATCC® HB-8065™) by the published procedures described in references: M A Selles et al. Proc. Natl. Acad. Sci. USA 1987, 84, 1005-1009 and H Guo et al. Journal of Virology 2007, 81, 12472-12484, respectively. Both cell lines were maintained in Dulbecco's modified Eagle's medium (DMEM)-F12 medium supplemented with 10% fetal bovine serum, 100 U/mL penicillin, 100 μg/mL streptomycin, and 0.5 mg/mL of G418.
While HepG2.2.15 cells constitutively support HBV replication and production of virus particles, HepDE19 cells are inducible by tetracycline. Addition of 1 μg/mL tetracycline in culture medium suppresses HBV replication in HepDE19 cells, whereas switching to tetracycline-free medium resumes this process.
HepG2.2.15 cells were seeded into 96-well plates (3×10^4 cells in 100 μL media per well) and incubated overnight at 37° C. The test compounds were serially half-log diluted in DMSO, then diluted 100 times in culture media. 100 μL diluted compounds were added into the plates to reach 0.5% final concentration of DMSO in every well. Five days after compound treatment, culture supernatant was collected for further analysis.
For quantitative PCR detection of extracellular HBV DNA, 100 μL culture supernatant was collected and processed in MagNA Pure 96 Nucleic Acid Purification System (Roche Applied Science) for viral DNA extraction. The extracted samples were subjected to HBV DNA quantification by qPCR. The effective compound concentration at which HBV replication is inhibited by 50% (EC50) was determined.
The Examples were tested in the above assays as described herein and found to have EC50<1 μM in HepG2.2.15 assay.

[2] = Human microsomal clearance assay; format: in vitro ADME
Method: Microsomes were preincubated with test compound for 10 minutes at 37° C. in 100 mM phosphate buffer with pH 7.4. The reactions were initiated by adding NADPH regenerating system to give a final incubation volume of 400 μL. The incubations finally contained 1 μM test compound, 0.5 mg/mL liver microsomal protein, 3.0 mM glucose 6-phosphate, 1.0 mM NADP, 3.0 mM MgCl2 and 0.05 mg/mL glucose 6-phosphate dehydrogenase in 100 mM phosphate buffer with pH 7.4. After incubation times of 0, 3, 6, 9, 15 and 30 minutes, 50 μL, incubation was transferred to the quench solution containing the internal standard which was 2 μM tolbutamide. After precipitation and centrifugation, test compound concentrations in the samples were determined by LC-MS/MS. Controls of no NADPH regenerating system at zero and 30 minutes were also prepared and analyzed.

[3] = Anti-HBV activity in HepG2.2.15 cells
[4] = Hepatitis B virus, HepG2.2.15, Anti-HBV activity in HepG2.2.15 cells

Row | Molecule | EC50 [1, 3] [nM] | CLh ([2]; human microsomal clearance) [mL/min/kg] | EC50 [1, 4] [nM] | CLh ([2]; human, 1 μM, pH 7.4) [mL/min/kg]
1 | 2-[(1R,5R,7S)-9-[[(4S)-4-(3,4-difluoro-2-methyl-phenyl)-5-methoxycarbonyl-2-thiazol-2-yl-1,4-dihydropyrimidin-6-yl]methyl]-6,6-difluoro-3-oxa-9-azabicyclo[3.3.1]nonan-7-yl]acetic acid or 2-[(1S,5S,7R)-9-[[(4S)-4-(3,4-difluoro-2-methyl-phenyl)-5-methoxycarbonyl-2-thiazol-2-yl-1,4-dihydropyrimidin-6-yl]methyl]-6,6-difluoro-3-oxa-9-azabicyclo[3.3.1]nonan-7-yl]acetic acid [Example 132] | 10.3 | 2.6 |  | 
2 | COC(=O)C1=C(CN2C3CC(F)(F)C2C[C@](O)(CC(=O)O)C3)NC(c2nccs2)=N[C@H]1c1ccc(F)cc1Cl (single isomer, unassigned) [Example 117] |  |  | 40.2 | 1.8
3 | COC(=O)C1=C(CN2C3COCC2CC(OC(C)=O)C3)NC(c2nccs2)=N[C@H]1c1ccc(F)cc1Cl (stereo partly drawn) [Example 8, (R)-6-(7-Acetoxy-3-oxa-9-aza-bicyclo[3.3.1]non-9-ylmethyl)-4-(2-chloro-4-fluoro-phenyl)-2-thiazol-2-yl-1,4-dihydro-pyrimidine-5-carboxylic acid methyl ester] |  |  |  | 0
4 | COC(=O)C1=C(CN2C3COCC2CN(C(N)=O)C3)NC(c2nccs2)=N[C@H]1c1ccc(F)cc1Cl [Example 18, (R)-6-(7-Carbamoyl-3-oxa-7,9-diaza-bicyclo[3.3.1]non-9-ylmethyl)-4-(2-chloro-4-fluoro-phenyl)-2-thiazol-2-yl-1,4-dihydro-pyrimidine-5-carboxylic acid methyl ester] |  |  | 20 | 1.3
5 | COC(=O)C1=C(CN2C3COCC2CN(C(=O)CO)C3)NC(c2nccs2)=N[C@H]1c1ccc(F)cc1Cl [Example 21, (R)-4-(2-Chloro-4-fluoro-phenyl)-6-[7-(2-hydroxy-acetyl)-3-oxa-7,9-diaza-bicyclo[3.3.1]non-9-ylmethyl]-2-thiazol-2-yl-1,4-dihydro-pyrimidine-5-carboxylic acid methyl ester] |  |  | 20 | 4.3
6 | COC(=O)C1=C(CN2[C@@H]3COC[C@H]2C[C@@H](NC(N)=O)C3)NC(c2nccs2)=N[C@H]1c1ccc(F)cc1Cl [Example 57, Methyl (4R)-4-(2-chloro-4-fluoro-phenyl)-2-thiazol-2-yl-6-[[(1S,5R)-7-endo-ureido-3-oxa-9-azabicyclo[3.3.1]nonan-9-yl]methyl]-1,4-dihydropyrimidine-5-carboxylate] |  |  | 21.9 | 5.0
7 | COC(=O)C1=C(CN2[C@H]3C[C@@H](CC(=O)O)C[C@@H]2C(F)(F)C3)NC(c2nccs2)=N[C@H]1c1ccc(F)cc1Cl [Example 87, 2-[(1S,3R,5R)-8-[[(4R)-4-(2-chloro-4-fluoro-phenyl)-5-methoxycarbonyl-2-thiazol-2-yl-1,4-dihydropyrimidin-6-yl]methyl]-6,6-difluoro-8-azabicyclo[3.2.1]octan-3-yl]acetic acid] |  |  | 39.4 | 0
8 | COC(=O)C1=C(CN2[C@H]3C[C@@H](CC(=O)O)C[C@@H]2C(F)(F)C3)NC(c2nccs2)=N[C@H]1c1cccc(F)c1Cl [Example 89, 2-[(1S,3R,5R)-8-[[(4R)-4-(2-chloro-3-fluoro-phenyl)-5-methoxycarbonyl-2-thiazol-2-yl-1,4-dihydropyrimidin-6-yl]methyl]-6,6-difluoro-8-azabicyclo[3.2.1]octan-3-yl]acetic acid] |  |  | 30.5 | 0
9 | COC(=O)C1=C(CN2[C@H]3C[C@@H](CC(=O)O)C[C@@H]2C(F)(F)C3)NC(c2nccs2)=N[C@H]1c1ccccc1Cl [Example 91, 2-[(1S,3R,5R)-8-[[(4R)-4-(2-chlorophenyl)-5-methoxycarbonyl-2-thiazol-2-yl-1,4-dihydropyrimidin-6-yl]methyl]-6,6-difluoro-8-azabicyclo[3.2.1]octan-3-yl]acetic acid] |  |  | 90.7 | 5.1
10 | CCOC(=O)C1=C(CN2[C@@H]3C[C@H](CC(=O)O)C[C@H]2C(F)(F)C3)NC(c2nccs2)=N[C@H]1c1ccccc1Br [Example 92, 2-[(1R,3S,5S)-8-[[(4R)-4-(2-bromophenyl)-5-ethoxycarbonyl-2-thiazol-2-yl-1,4-dihydropyrimidin-6-yl]methyl]-6,6-difluoro-8-azabicyclo[3.2.1]octan-3-yl]acetic acid] |  |  | 1.5 | 1.7
11 | CCOC(=O)C1=C(CN2[C@H]3C[C@@H](CC(=O)O)C[C@@H]2C(F)(F)C3)NC(c2nccs2)=N[C@H]1c1ccccc1Br [Example 93, 2-[(1S,3R,5R)-8-[[(4R)-4-(2-bromophenyl)-5-ethoxycarbonyl-2-thiazol-2-yl-1,4-dihydropyrimidin-6-yl]methyl]-6,6-difluoro-8-azabicyclo[3.2.1]octan-3-yl]acetic acid] |  |  | 28.9 | 0.2
12 | COC(=O)C1=C(CN2[C@@H]3C[C@H](CC(=O)O)C[C@H]2C(F)(F)C3)NC(c2nccs2)=N[C@H]1c1cccc(F)c1Br [Example 94, 2-[(1R,3S,5S)-8-[[(4R)-4-(2-bromo-3-fluoro-phenyl)-5-methoxycarbonyl-2-thiazol-2-yl-1,4-dihydropyrimidin-6-yl]methyl]-6,6-difluoro-8-azabicyclo[3.2.1]octan-3-yl]acetic acid] |  |  | 21.7 | 0
13 | COC(=O)C1=C(CN2[C@H]3C[C@@H](CC(=O)O)C[C@@H]2C(F)(F)C3)NC(c2nccs2)=N[C@H]1c1cccc(F)c1Br [Example 95, 2-[(1S,3R,5R)-8-[[(4R)-4-(2-bromo-3-fluoro-phenyl)-5-methoxycarbonyl-2-thiazol-2-yl-1,4-dihydropyrimidin-6-yl]methyl]-6,6-difluoro-8-azabicyclo[3.2.1]octan-3-yl]acetic acid] |  |  | 31.1 | 0
14 | COC(=O)C1=C(CN2[C@@H]3C[C@H](CC(=O)O)C[C@H]2C(F)(F)C3)NC(c2nccs2)=N[C@H]1c1ccc(Cl)c(F)c1 [Example 96, 2-[(1R,3S,5S)-8-[[(4S)-4-(4-chloro-3-fluoro-phenyl)-5-methoxycarbonyl-2-thiazol-2-yl-1,4-dihydropyrimidin-6-yl]methyl]-6,6-difluoro-8-azabicyclo[3.2.1]octan-3-yl]acetic acid] |  |  | 6.8 | 1.8
15 | COC(=O)C1=C(CN2[C@H]3C[C@@H](CC(=O)O)C[C@@H]2C(F)(F)C3)NC(c2nccs2)=N[C@H]1c1ccc(Cl)c(F)c1 [Example 97, 2-[(1S,3R,5R)-8-[[(48)-4-(4-chloro-3-fluoro-phenyl)-5-methoxycarbonyl-2-thiazol-2-yl-1,4-dihydropyrimidin-6-yl]methyl]-6,6-difluoro-8-azabicyclo[3.2.1]octan-3-yl]acetic acid] | 156 | 0 |  | 
16 | CCOC(=O)C1=C(CN2[C@@H]3C[C@H](CC(=O)O)C[C@H]2C(F)(F)C3)NC(c2nccs2)=N[C@H]1c1cccc(F)c1Cl [Example 98, 2-[(1R,3S,5S)-8-[[(4R)-4-(2-chloro-3-fluoro-phenyl)-5-ethoxycarbonyl-2-thiazol-2-yl-1,4-dihydropyrimidin-6-yl]methyl]-6,6-difluoro-8-azabicyclo[3.2.1]octan-3-yl]acetic acid] |  |  | 0.7 | 4.5
17 | CCOC(=O)C1=C(CN2[C@H]3C[C@@H](CC(=O)O)C[C@@H]2C(F)(F)C3)NC(c2nccs2)=N[C@H]1c1cccc(F)c1Cl [Example 99, 2-[(1S,3R,5R)-8-[[(4R)-4-(2-chloro-3-fluoro-phenyl)-5-ethoxycarbonyl-2-thiazol-2-yl-1,4-dihydropyrimidin-6-yl]methyl]-6,6-difluoro-8-azabicyclo[3.2.1]octan-3-yl]acetic acid] |  |  | 12.6 | 3
18 | COC(=O)C1=C(CN2[C@@H]3COC[C@H]2[C@H](F)[C@@H](CC(=O)O)C3)NC(c2nccs2)=N[C@H]1c1cccc(F)c1Cl [Example 100, 2-[(1S,5S,6R,7R)-9-[[(4R)-4-(2-chloro-3-fluoro-phenyl)-5-methoxycarbonyl-2-thiazol-2-yl-1,4-dihydropyrimidin-6-yl]methyl]-6-fluoro-3-oxa-9-azabicyclo[3.3.1]nonan-7-yl]acetic acid] |  |  | 283 | 0
